Measured values published in paper PMC5218480 (PLoS ONE, 2017).

Tested on: MV-4-11 cells
Assay: Gene expression microarray analysis (Affymetrix PrimeView) and GSEA
Format: cell-based, human
Parameters: RFU PODN (11730768_x_at) / Fold change /veh PODN (11730768_x_at) / RFU LINC00158 (11744669_a_at) / Fold change /veh LINC00158 (11744669_a_at) / RFU DUSP10 (11751237_a_at) / Fold change /veh DUSP10 (11751237_a_at) / RFU ID3 (11757404_x_at) / Fold change /veh ID3 (11757404_x_at) / RFU PLEKHG5 (11737974_s_at) / Fold change /veh PLEKHG5 (11737974_s_at) / RFU LRRC4B (11730491_at) / Fold change /veh LRRC4B (11730491_at) / RFU GIMAP4 (11747438_a_at) / Fold change /veh GIMAP4 (11747438_a_at) / RFU KRT8 (11758183_x_at) / Fold change /veh KRT8 (11758183_x_at) / RFU CNN1 (11734310_a_at) / Fold change /veh CNN1 (11734310_a_at) / RFU VPS37D (11726825_at) / Fold change /veh VPS37D (11726825_at) / RFU C10orf10 (11716522_x_at) / Fold change /veh C10orf10 (11716522_x_at) / RFU KIR2DL2 /// KIR2DL4 /// KIR2DL5A /// KIR2DL5B /// KIR2DS1 /// KIR2DS2 /// KIR2DS3 /// KIR2DS4 /// KIR3DL3 /// KIR3DL3 /// KIR3DS1 (11738374_at) / Fold change /veh KIR2DL2 /// KIR2DL4 /// KIR2DL5A /// KIR2DL5B /// KIR2DS1 /// KIR2DS2 /// KIR2DS3 /// KIR2DS4 /// KIR3DL3 /// KIR3DL3 /// KIR3DS1 (11738374_at) / RFU C1QL1 (11718748_at) / Fold change /veh C1QL1 (11718748_at) / RFU TMPRSS4 (11747572_a_at) / Fold change /veh TMPRSS4 (11747572_a_at) / RFU HAMP (11756126_x_at) / Fold change /veh HAMP (11756126_x_at) / RFU RNFT2 (11725882_a_at) / Fold change /veh RNFT2 (11725882_a_at) / RFU NR4A2 (11747474_a_at) / Fold change /veh NR4A2 (11747474_a_at) / RFU ABCC12 (11746883_a_at) / Fold change /veh ABCC12 (11746883_a_at) / RFU TMEM136 (11760407_x_at) / Fold change /veh TMEM136 (11760407_x_at) / RFU CLDN22 /// WWC2 (11732394_at) / Fold change /veh CLDN22 /// WWC2 (11732394_at) / RFU HLA-DPB1 (11760878_x_at) / Fold change /veh HLA-DPB1 (11760878_x_at) / RFU SPINT1 (11716480_a_at) / Fold change /veh SPINT1 (11716480_a_at) / RFU GAP43 (11754022_s_at) / Fold change /veh GAP43 (11754022_s_at) / RFU A4GNT (11735810_at) / Fold change /veh A4GNT (11735810_at) / RFU PRB3 (11715151_x_at) / Fold change /veh PRB3 (11715151_x_at) / RFU TUBB4B (11761932_at) / Fold change /veh TUBB4B (11761932_at) / RFU CAPN14 (11732068_a_at) / Fold change /veh CAPN14 (11732068_a_at) / RFU TMCC2 (11721928_a_at) / Fold change /veh TMCC2 (11721928_a_at) / RFU IRGQ (11745062_a_at) / Fold change /veh IRGQ (11745062_a_at) / RFU FAM174B (11720279_a_at) / Fold change /veh FAM174B (11720279_a_at) / RFU TMPRSS4 (11748680_a_at) / Fold change /veh TMPRSS4 (11748680_a_at) / RFU FAM212B (11763350_a_at) / Fold change /veh FAM212B (11763350_a_at) / RFU PLEKHG5 (11743358_a_at) / Fold change /veh PLEKHG5 (11743358_a_at) / RFU ZSCAN30 (11745921_a_at) / Fold change /veh ZSCAN30 (11745921_a_at) / RFU CMKLR1 (11741424_a_at) / Fold change /veh CMKLR1 (11741424_a_at) / RFU LOC101060620 /// MAPK8IP1 (11723275_at) / Fold change /veh LOC101060620 /// MAPK8IP1 (11723275_at) / RFU SPTSSB (11747773_x_at) / Fold change /veh SPTSSB (11747773_x_at) / RFU PRSS12 (11739890_at) / Fold change /veh PRSS12 (11739890_at) / RFU BIN1 (11741810_x_at) / Fold change /veh BIN1 (11741810_x_at) / RFU WNT11 (11732464_a_at) / Fold change /veh WNT11 (11732464_a_at) / RFU C10orf10 (11716521_a_at) / Fold change /veh C10orf10 (11716521_a_at) / RFU C5orf56 (11738089_at) / Fold change /veh C5orf56 (11738089_at) / RFU CYB561 (11721691_x_at) / Fold change /veh CYB561 (11721691_x_at) / RFU ANKRD19P (11752326_a_at) / Fold change /veh ANKRD19P (11752326_a_at) / RFU OR2T12 /// OR2T33 /// OR2T8 (11738714_s_at) / Fold change /veh OR2T12 /// OR2T33 /// OR2T8 (11738714_s_at) / RFU VCAN (11748164_a_at) / Fold change /veh VCAN (11748164_a_at) / RFU JSRP1 (11732532_at) / Fold change /veh JSRP1 (11732532_at) / RFU KRTAP10-11 (11738290_x_at) / Fold change /veh KRTAP10-11 (11738290_x_at) / RFU MYO3A (11730013_a_at) / Fold change /veh MYO3A (11730013_a_at) / RFU EBF3 (11725865_a_at) / Fold change /veh EBF3 (11725865_a_at) / RFU CAMK2N1 (11719241_x_at) / Fold change /veh CAMK2N1 (11719241_x_at) / RFU C5orf56 (11738088_a_at) / Fold change /veh C5orf56 (11738088_a_at) / RFU OLFML3 (11715873_a_at) / Fold change /veh OLFML3 (11715873_a_at) / RFU LOC100653217 /// NTM (11731650_a_at) / Fold change /veh LOC100653217 /// NTM (11731650_a_at) / RFU MAPK11 (11762145_a_at) / Fold change /veh MAPK11 (11762145_a_at) / RFU FIZ1 (11724087_x_at) / Fold change /veh FIZ1 (11724087_x_at) / RFU OASL (11726364_x_at) / Fold change /veh OASL (11726364_x_at) / RFU SOX15 (11748057_x_at) / Fold change /veh SOX15 (11748057_x_at) / RFU CD79A (11719716_a_at) / Fold change /veh CD79A (11719716_a_at) / RFU HIST1H1D (11736915_at) / Fold change /veh HIST1H1D (11736915_at) / RFU CASKIN2 (11723855_a_at) / Fold change /veh CASKIN2 (11723855_a_at) / RFU LOC730098 (11760151_x_at) / Fold change /veh LOC730098 (11760151_x_at) / RFU OR4N2 (11742367_at) / Fold change /veh OR4N2 (11742367_at) / RFU PRRT2 (11749266_a_at) / Fold change /veh PRRT2 (11749266_a_at) / RFU SNX32 (11753110_a_at) / Fold change /veh SNX32 (11753110_a_at) / RFU CDHR5 (11726645_a_at) / Fold change /veh CDHR5 (11726645_a_at) / RFU RCAN1 (11760418_a_at) / Fold change /veh RCAN1 (11760418_a_at) / RFU FAM167A (11723789_a_at) / Fold change /veh FAM167A (11723789_a_at) / RFU FAM26E (11764081_at) / Fold change /veh FAM26E (11764081_at) / RFU ISYNA1 (11749810_s_at) / Fold change /veh ISYNA1 (11749810_s_at) / RFU ACY1 (11761880_at) / Fold change /veh ACY1 (11761880_at) / RFU 11764098_at / Fold change /veh 11764098_at / RFU SAMD14 (11745864_x_at) / Fold change /veh SAMD14 (11745864_x_at) / RFU NPB (11741838_a_at) / Fold change /veh NPB (11741838_a_at) / RFU TMPRSS6 (11731388_a_at) / Fold change /veh TMPRSS6 (11731388_a_at) / RFU KRTAP10-2 (11738614_at) / Fold change /veh KRTAP10-2 (11738614_at) / RFU ARHGAP8 /// PRR5-ARHGAP8 (11727945_x_at) / Fold change /veh ARHGAP8 /// PRR5-ARHGAP8 (11727945_x_at) / RFU KRTAP5-7 /// NADSYN1 (11734609_at) / Fold change /veh KRTAP5-7 /// NADSYN1 (11734609_at) / RFU RASL12 (11751679_a_at) / Fold change /veh RASL12 (11751679_a_at) / RFU CDKN2B (11736163_a_at) / Fold change /veh CDKN2B (11736163_a_at) / RFU PRF1 (11729649_at) / Fold change /veh PRF1 (11729649_at) / RFU, ZNF638 /// ZNF638-IT1 / Fold change vs veh, ZNF638 /// ZNF638-IT1 / RFU, PANK3 / Fold change vs veh, PANK3 / RFU, SH3YL1 / Fold change vs veh, SH3YL1 / RFU, ZEB2 / Fold change vs veh, ZEB2 / RFU, NRIP1 / Fold change vs veh, NRIP1 / RFU, PTTG1IP / Fold change vs veh, PTTG1IP / RFU, CAPN2 / Fold change vs veh, CAPN2 / RFU, MED14 / Fold change vs veh, MED14 / RFU, SNORA58 / Fold change vs veh, SNORA58 / RFU, C1orf63 / Fold change vs veh, C1orf63 / RFU, LRRFIP1 / Fold change vs veh, LRRFIP1 / RFU, NDUFAF7 / Fold change vs veh, NDUFAF7 / RFU, SLC12A2 / Fold change vs veh, SLC12A2 / RFU, IBTK / Fold change vs veh, IBTK / RFU, ESF1 / Fold change vs veh, ESF1 / Fold change vs veh, TMEM50B / RFU, TAOK1 / Fold change vs veh, TAOK1 / RFU, ACBD3 / Fold change vs veh, ACBD3 / RFU, TMA16 / Fold change vs veh, TMA16 / RFU, RWDD3 / Fold change vs veh, RWDD3 / RFU, BCAT1 / Fold change vs veh, BCAT1 / RFU, EDEM3 / Fold change vs veh, EDEM3 / RFU, TMEM33 / Fold change vs veh, TMEM33 / RFU, WDR75 / Fold change vs veh, WDR75 / RFU, AHCTF1 / Fold change vs veh, AHCTF1 / RFU, TFRC / Fold change vs veh, TFRC / RFU, ZDHHC17 / Fold change vs veh, ZDHHC17 / RFU, NOM1 / Fold change vs veh, NOM1 / RFU, ARL8B / Fold change vs veh, ARL8B / RFU, ZBTB11 / Fold change vs veh, ZBTB11 / RFU, TAMM41 / Fold change vs veh, TAMM41 / RFU, KIAA1704 /// LOC100996395 / Fold change vs veh, KIAA1704 /// LOC100996395 / RFU, ING1 / Fold change vs veh, ING1 / RFU, TRMT61B / Fold change vs veh, TRMT61B / RFU, FUBP3 / Fold change vs veh, FUBP3 / RFU, TP53 / Fold change vs veh, TP53 / RFU, TNKS2 / Fold change vs veh, TNKS2 / RFU, ZFP14 / Fold change vs veh, ZFP14 / RFU, ACTR2 / Fold change vs veh, ACTR2 / RFU, PPP3R1 / Fold change vs veh, PPP3R1 / RFU, PIK3R1 / Fold change vs veh, PIK3R1 / RFU, HNRNPA1 / Fold change vs veh, HNRNPA1 / RFU, RNF170 / Fold change vs veh, RNF170 / RFU, ZNF28 / Fold change vs veh, ZNF28 / RFU, RNGTT / Fold change vs veh, RNGTT / RFU, OGT / Fold change vs veh, OGT / RFU, BRD1 / Fold change vs veh, BRD1 / RFU, MARS / Fold change vs veh, MARS / RFU, ZNF655 / Fold change vs veh, ZNF655 / RFU, FAHD1 / Fold change vs veh, FAHD1 / RFU, BDP1 / Fold change vs veh, BDP1 / RFU, LRRCC1 / Fold change vs veh, LRRCC1 / RFU, ARID1A / Fold change vs veh, ARID1A / RFU, ZNF146 / Fold change vs veh, ZNF146 / RFU, ZNF330 / Fold change vs veh, ZNF330 / RFU, GPN3 / Fold change vs veh, GPN3 / RFU, C9orf123 / Fold change vs veh, C9orf123 / RFU, N4BP2L2 / Fold change vs veh, N4BP2L2 / RFU, ARFIP1 / Fold change vs veh, ARFIP1 / RFU, FAM179B / Fold change vs veh, FAM179B / RFU, BCL10 / Fold change vs veh, BCL10 / RFU, UHRF1BP1L / Fold change vs veh, UHRF1BP1L / RFU, BET1 / Fold change vs veh, BET1 / RFU, CNOT2 / Fold change vs veh, CNOT2 / RFU, ZNF268 / Fold change vs veh, ZNF268 / Fold change vs veh, ZNF507 / RFU, DGCR2 / Fold change vs veh, DGCR2 / RFU, WDSUB1 / Fold change vs veh, WDSUB1 / Fold change vs veh, HSP90B1 /// MIR3652 / RFU, ADSS / Fold change vs veh, ADSS / RFU, GK / Fold change vs veh, GK / RFU, ZNF148 / Fold change vs veh, ZNF148 / RFU, TAF9 / Fold change vs veh, TAF9 / RFU, SLC1A5 / Fold change vs veh, SLC1A5 / RFU, SLMO2 / Fold change vs veh, SLMO2 / RFU, ABCC4 / Fold change vs veh, ABCC4 / RFU, LOC101060439 /// RAP1B / Fold change vs veh, LOC101060439 /// RAP1B / RFU, RFX7 / Fold change vs veh, RFX7 / RFU, GTPBP10 / Fold change vs veh, GTPBP10 / RFU, CNEP1R1 / Fold change vs veh, CNEP1R1 / RFU, BIVM-ERCC5 /// ERCC5 / Fold change vs veh, BIVM-ERCC5 /// ERCC5 / RFU, ILF3 / Fold change vs veh, ILF3 / RFU 11762660_at / Fold change /veh 11762660_at / RFU VCAN (11757783_s_at) / Fold change /veh VCAN (11757783_s_at) / RFU DDX43 (11728927_at) / Fold change /veh DDX43 (11728927_at) / RFU KRT8 (11758188_x_at) / Fold change /veh KRT8 (11758188_x_at) / RFU NKD1 (11759106_at) / Fold change /veh NKD1 (11759106_at) / RFU SRD5A1 (11742802_a_at) / Fold change /veh SRD5A1 (11742802_a_at) / RFU TPSAB1 /// TPSB2 (11721975_s_at) / Fold change /veh TPSAB1 /// TPSB2 (11721975_s_at) / RFU GSTM3 (11746129_a_at) / Fold change /veh GSTM3 (11746129_a_at) / RFU IL23R (11737362_x_at) / Fold change /veh IL23R (11737362_x_at) / RFU TMEM51 (11727254_a_at) / Fold change /veh TMEM51 (11727254_a_at) / RFU PIWIL2 (11732686_x_at) / Fold change /veh PIWIL2 (11732686_x_at) / RFU ORM1 (11744905_x_at) / Fold change /veh ORM1 (11744905_x_at) / RFU CCDC152 (11743942_at) / Fold change /veh CCDC152 (11743942_at) / RFU ECM1 (11717891_a_at) / Fold change /veh ECM1 (11717891_a_at) / RFU IL23R (11748794_a_at) / Fold change /veh IL23R (11748794_a_at) / RFU TNFAIP8L3 (11732012_x_at) / Fold change /veh TNFAIP8L3 (11732012_x_at) / RFU MBOAT4 (11741988_at) / Fold change /veh MBOAT4 (11741988_at) / RFU 11764193_at / Fold change /veh 11764193_at / RFU TMEM53 (11763286_at) / Fold change /veh TMEM53 (11763286_at) / RFU MAGEB2 (11727129_at) / Fold change /veh MAGEB2 (11727129_at) / RFU TMEM200A (11744735_a_at) / Fold change /veh TMEM200A (11744735_a_at) / RFU CCDC152 (11751479_a_at) / Fold change /veh CCDC152 (11751479_a_at) / RFU FAM211A (11726209_a_at) / Fold change /veh FAM211A (11726209_a_at) / RFU RGS16 (11746705_a_at) / Fold change /veh RGS16 (11746705_a_at) / RFU VCAN (11755009_s_at) / Fold change /veh VCAN (11755009_s_at) / RFU RHOB (11743442_s_at) / Fold change /veh RHOB (11743442_s_at) / RFU RGS16 (11720943_a_at) / Fold change /veh RGS16 (11720943_a_at) / RFU RGS16 (11720944_at) / Fold change /veh RGS16 (11720944_at) / RFU, VPS4B / Fold change vs veh, VPS4B / RFU, CREB1 / Fold change vs veh, CREB1 / RFU, DNAJC13 / Fold change vs veh, DNAJC13 / RFU, GNAQ / Fold change vs veh, GNAQ / RFU, CDK5R1 / Fold change vs veh, CDK5R1 / RFU, ZRANB3 / Fold change vs veh, ZRANB3 / RFU, CUL4A / Fold change vs veh, CUL4A / RFU, CCNY / Fold change vs veh, CCNY / RFU, UFL1 / Fold change vs veh, UFL1 / RFU, COG3 / Fold change vs veh, COG3 / RFU, DIAPH2 / Fold change vs veh, DIAPH2 / RFU, SKA2 / Fold change vs veh, SKA2 / RFU, AFF3 / Fold change vs veh, AFF3 / RFU, LMF1 / Fold change vs veh, LMF1 / RFU, IPO11 / Fold change vs veh, IPO11 / RFU, DFFB / Fold change vs veh, DFFB / RFU, FOXP1 / Fold change vs veh, FOXP1 / RFU, CARD8 / Fold change vs veh, CARD8 / RFU, STRN3 / Fold change vs veh, STRN3 / RFU, ADK / Fold change vs veh, ADK / RFU, RASSF2 / Fold change vs veh, RASSF2 / RFU, WIPF1 / Fold change vs veh, WIPF1 / RFU, LARP1B / Fold change vs veh, LARP1B / RFU, RASA1 / Fold change vs veh, RASA1 / RFU, RB1 / Fold change vs veh, RB1 / RFU, PPFIA1 / Fold change vs veh, PPFIA1 / RFU, MAT2A / Fold change vs veh, MAT2A / RFU, CCT5 / Fold change vs veh, CCT5 / RFU, WDR92 / Fold change vs veh, WDR92 / RFU, CUX1 / Fold change vs veh, CUX1 / RFU, TTC7A / Fold change vs veh, TTC7A / RFU, TMEM135 / Fold change vs veh, TMEM135 / RFU, DEPTOR / Fold change vs veh, DEPTOR / RFU, CPM / Fold change vs veh, CPM / RFU, DNAJB6 / Fold change vs veh, DNAJB6 / RFU, CACNA2D3 / Fold change vs veh, CACNA2D3 / RFU, DTX4 / Fold change vs veh, DTX4 / RFU, TFCP2 / Fold change vs veh, TFCP2 / RFU, GMCL1 /// GMCL1P1 / Fold change vs veh, GMCL1 /// GMCL1P1 / RFU, AEBP2 / Fold change vs veh, AEBP2 / RFU, SNHG1 /// SNORD22 /// SNORD25 /// SNORD26 /// SNORD27 /// SNORD28 /// SNORD29 /// SNORD31 / Fold change vs veh, SNHG1 /// SNORD22 /// SNORD25 /// SNORD26 /// SNORD27 /// SNORD28 /// SNORD29 /// SNORD31 / Fold change (Aza/veh), C12orf56 (ProbeSet 11735607_a_at) / Fold change (ACY-1035/veh), C12orf56 (ProbeSet 11735607_a_at) / Fold change (Aza/veh), FGFR1OP (ProbeSet 11751329_s_at) / Fold change (ACY-1035/veh), FGFR1OP (ProbeSet 11751329_s_at) / Fold change (Aza/veh), VPS36 (ProbeSet 11739960_a_at) / Fold change (ACY-1035/veh), VPS36 (ProbeSet 11739960_a_at) / RFU SYPL1 (11715823_x_at) / Fold change /veh SYPL1 (11715823_x_at) / RFU IGFBP7 (11715501_s_at) / Fold change /veh IGFBP7 (11715501_s_at) / RFU REEP3 (11722064_at) / Fold change /veh REEP3 (11722064_at) / RFU IGLL1 (11728026_x_at) / Fold change /veh IGLL1 (11728026_x_at): dose or concentration left out as unconfirmed
Conditions: MV-4-11 cells, 48 hours

Nc1ccc(-c2cccs2)cc1NC(=O)c1ccc2c(c1)cc(C1CC1)n2CCN1CCOCC1 [ACY-1035]
RFU RHOB (11743442_s_at): 104.18 RFU
